ChEMBL document CHEMBL1201862, “PubChem BioAssay data set” (2004)
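96-well plates; 48 h exposure; 5 concentrations. Endpoints by linear interpolation between flanking doses. Not reached: highest tested concentration assigned. At the GI50, growth is halved.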 Activity calls are given as the source filed them. No stated cut-off is given here; in the data, active = GI50 up to about 1.1 µM and inactive = higher.

What was measured:
Assay in all cases: NCI-60 cell line screen, 48 h
OVCAR-5 = test system: OVCAR-5
Malme-3M = test system: Malme-3M
SNB-75 = test system: SNB-75
U-251 = test system: U-251
SF-539 = test system: SF-539
SK-MEL-28 = test system: SK-MEL-28
ACHN = test system: ACHN
UACC-257 = test system: UACC-257
HT-29 = test system: HT-29
786-0 = test system: 786-0
SN12C = test system: SN12C
DU-145 = test system: DU-145
IGROV-1 = test system: IGROV-1
SK-OV-3 = test system: SK-OV-3
SK-MEL-5 = test system: SK-MEL-5
NCI-H522 = test system: NCI-H522
HOP-92 = test system: HOP-92
SR = test system: SR
SNB-19 = test system: SNB-19
NCI-H226 = test system: NCI-H226

Row | Structure (SMILES) | GI50 (OVCAR-5) | GI50 (Malme-3M) | GI50 (SNB-75) | GI50 (U-251) | GI50 (SF-539) | GI50 (SK-MEL-28) | GI50 (ACHN) | GI50 (UACC-257) | GI50 (HT-29) | GI50 (786-0) | GI50 (SN12C) | GI50 (DU-145) | GI50 (IGROV-1) | GI50 (SK-OV-3) | GI50 (SK-MEL-5) | GI50 (NCI-H522) | GI50 (HOP-92) | GI50 (SR) | GI50 (SNB-19) | GI50 (NCI-H226)
1 | CCOC(=O)c1c(C)c(C)n2c1NC(=O)C2 | > 100 µM (inactive) | > 50.7 µM (inactive) | 39.1 µM (inactive) | > 48.1 µM (inactive) | > 57 µM (inactive) | > 100 µM (inactive) | > 76.2 µM (inactive) | > 60 µM (inactive) | > 74.3 µM (inactive) | > 49.7 µM (inactive) | > 54.3 µM (inactive) | 20.8 µM (inactive) | > 72.1 µM (inactive) | > 100 µM (inactive) | > 100 µM (inactive) | > 43.7 µM (inactive) | > 91.4 µM (inactive) | 37.2 µM (inactive) | 55.3 µM (inactive) | > 100 µM (inactive)
2 | COc1ccc(C(=O)/C=C2\C(=O)Nc3ccc(Br)cc32)cc1 | 19.3 µM (inactive) | 8.22 µM (inactive) | 14.3 µM (inactive) | 14.2 µM (inactive) | 7.93 µM (inactive) | 10.5 µM (inactive) | 1.89 µM (inactive) | 11.3 µM (inactive) | 1.82 µM (inactive) | 1.97 µM (inactive) | 2.88 µM (inactive) | 7.48 µM (inactive) | 2.84 µM (inactive) | 15.6 µM (inactive) | 18.4 µM (inactive) | 4.03 µM (inactive) | 3.24 µM (inactive) | 2.96 µM (inactive) | 16.7 µM (inactive) | 11.1 µM (inactive)
3 | OCC1OC(N2CCN(C3OC(CO)C(O)C(O)C3O)CC2)C(O)C(O)C1O (configuration not stated) | > 100 µM (inactive) | > 100 µM (inactive) | > 100 µM (inactive) | > 100 µM (inactive) | > 100 µM (inactive) | > 100 µM (inactive) | > 100 µM (inactive) | > 100 µM (inactive) | > 100 µM (inactive) | > 100 µM (inactive) | > 100 µM (inactive) | > 100 µM (inactive) | > 100 µM (inactive) | > 100 µM (inactive) | > 100 µM (inactive) | > 100 µM (inactive) | > 100 µM (inactive) | > 100 µM (inactive) | > 100 µM (inactive) | > 100 µM (inactive)
4 | Cc1ccc(S(=O)(=O)N/N=C2\CC3C4CCC3C2C4)cc1 (configuration not stated) | > 100 µM (inactive) | > 100 µM (inactive) | 0.0859 µM (active) | > 100 µM (inactive) | > 100 µM (inactive) | > 100 µM (inactive) | > 100 µM (inactive) | > 100 µM (inactive) | > 100 µM (inactive) | > 100 µM (inactive) | > 100 µM (inactive) | > 100 µM (inactive) | > 100 µM (inactive) | > 100 µM (inactive) | > 100 µM (inactive) | > 100 µM (inactive) | > 100 µM (inactive) | > 100 µM (inactive) | > 100 µM (inactive) | > 100 µM (inactive)
5 | N#CCC(=O)N/N=C(\CCN1CCCC1)CC(c1ccccc1)c1c(O)c2ccccc2oc1=O (configuration not stated) | > 100 µM (inactive) | 60 µM (inactive) | > 89.1 µM (inactive) | 82.6 µM (inactive) | > 88.5 µM (inactive) | > 100 µM (inactive) | > 60.4 µM (inactive) | > 70.6 µM (inactive) | > 88.7 µM (inactive) | > 100 µM (inactive) | > 100 µM (inactive) | > 100 µM (inactive) | > 100 µM (inactive) | > 86.9 µM (inactive) | > 72.1 µM (inactive) | 70.6 µM (inactive) | 27.7 µM (inactive) | 29.4 µM (inactive) | > 100 µM (inactive) | > 89.5 µM (inactive)
6 | COc1cc2c3c4c1OCc1c5c(cc(c1-4)CC3[N+](C)(C)CC2)OCO5 (configuration not stated) | > 100 µM (inactive) | 60.5 µM (inactive) | 26.7 µM (inactive) | 4.9 µM (inactive) | 11.2 µM (inactive) | > 100 µM (inactive) | > 100 µM (inactive) | > 100 µM (inactive) | > 100 µM (inactive) | 4.33 µM (inactive) | 3.21 µM (inactive) | > 100 µM (inactive) | > 100 µM (inactive) | > 100 µM (inactive) | > 100 µM (inactive) | 27.1 µM (inactive) | > 100 µM (inactive) | 49.8 µM (inactive) | 4.33 µM (inactive) | 32.3 µM (inactive)
7 | CC[n+]1cnc(N)c2c(-c3ccc(Cl)cc3)cn(-c3ccc(C)cc3)c21 | 15.8 µM (inactive) | 12.3 µM (inactive) | 3.56 µM (inactive) | 11.9 µM (inactive) | 14.6 µM (inactive) | 9.33 µM (inactive) | 12.9 µM (inactive) | 2.82 µM (inactive) | 4.36 µM (inactive) | 11.4 µM (inactive) | 12.3 µM (inactive) | 17.9 µM (inactive) | 13.1 µM (inactive) | 15.4 µM (inactive) | 10.3 µM (inactive) | 15.5 µM (inactive) | 11.2 µM (inactive) | 4.6 µM (inactive) | 15.5 µM (inactive) | 13.2 µM (inactive)
8 | C/C(=C/CC[C@]1(CO)CC[C@]2(C)[C@H](CC[C@@H]3[C@@]4(C)CC[C@H](OC5OC(CO)C(O)C(O)C5OC5OC(CO)C(O)C(O)C5O)C(C)(C)[C@@H]4CC[C@]32C)[C@H]1O)CO (some centres not stated) | > 100 µM (inactive) | > 100 µM (inactive) | > 100 µM (inactive) | > 100 µM (inactive) | > 100 µM (inactive) | > 100 µM (inactive) | > 100 µM (inactive) | > 100 µM (inactive) | > 100 µM (inactive) | > 100 µM (inactive) | > 100 µM (inactive) | > 100 µM (inactive) | > 100 µM (inactive) | > 100 µM (inactive) | > 100 µM (inactive) | > 100 µM (inactive) | > 100 µM (inactive) | > 100 µM (inactive) | > 100 µM (inactive) | > 100 µM (inactive)
9 | CN(CCCNC(=O)c1c2ccc3ccccc3c2nn1C)CCCNC(=O)c1c2ccc3ccccc3c2nn1C | 11.5 µM (inactive) | 3.03 µM (inactive) | 8.2 µM (inactive) | 7.85 µM (inactive) | 6.24 µM (inactive) | 2.3 µM (inactive) | 11.5 µM (inactive) | 1.9 µM (inactive) | 2.53 µM (inactive) | 11.6 µM (inactive) | 12.4 µM (inactive) | 17.5 µM (inactive) | 8.79 µM (inactive) | 15 µM (inactive) | 2.23 µM (inactive) | 7.35 µM (inactive) | 3.21 µM (inactive) | 3 µM (inactive) | 14.9 µM (inactive) | 15.1 µM (inactive)
10 | C=C1N(S(=O)(=O)c2ccc(C)cc2)C(=O)OCC12CCCC2 | > 100 µM (inactive) | > 100 µM (inactive) | 14.1 µM (inactive) | 76 µM (inactive) | > 100 µM (inactive) | > 100 µM (inactive) | > 100 µM (inactive) | 80.4 µM (inactive) | 54.7 µM (inactive) | > 100 µM (inactive) |  | > 100 µM (inactive) | 31.3 µM (inactive) | 41.4 µM (inactive) | 25.4 µM (inactive) | > 100 µM (inactive) | > 100 µM (inactive) | 45.7 µM (inactive) | > 100 µM (inactive) | > 100 µM (inactive)
11 | CC(=O)Oc1ccc2c(c1)c1c(=O)oc(C)nc1n2Cc1ccccc1 | > 84.5 µM (inactive) | 73.6 µM (inactive) | > 41.8 µM (inactive) | 30.9 µM (inactive) | 27.5 µM (inactive) | 46.2 µM (inactive) | 28.7 µM (inactive) | > 100 µM (inactive) | > 89.3 µM (inactive) | 39.6 µM (inactive) | 66.8 µM (inactive) | > 55.7 µM (inactive) | 51.4 µM (inactive) | 28.7 µM (inactive) | 40 µM (inactive) | 12 µM (inactive) | 34 µM (inactive) | > 52.4 µM (inactive) | 69.8 µM (inactive) | 24.8 µM (inactive)
12 | Nc1cccc(S(=O)(=O)Nc2nnc(S(N)(=O)=O)s2)c1 | > 100 µM (inactive) | > 100 µM (inactive) | > 100 µM (inactive) | > 100 µM (inactive) | > 100 µM (inactive) | > 100 µM (inactive) | > 100 µM (inactive) |  | > 100 µM (inactive) | > 100 µM (inactive) |  | > 100 µM (inactive) | > 100 µM (inactive) | > 100 µM (inactive) | > 100 µM (inactive) | > 100 µM (inactive) | > 100 µM (inactive) | > 100 µM (inactive) | > 100 µM (inactive) | > 100 µM (inactive)
13 | S=c1c2cc(I)ccc2nc(S)n1Cc1ccccc1 | 17 µM (inactive) | 4.01 µM (inactive) | 2.69 µM (inactive) | 3.46 µM (inactive) | 10.3 µM (inactive) | 3.79 µM (inactive) | 3.06 µM (inactive) | 2.44 µM (inactive) | 18.4 µM (inactive) | 5.96 µM (inactive) | 3.16 µM (inactive) | 2.71 µM (inactive) | 4.05 µM (inactive) | 4.1 µM (inactive) | 3.17 µM (inactive) | 4.38 µM (inactive) | 2.69 µM (inactive) | 3.64 µM (inactive) | 4.32 µM (inactive) | 5.46 µM (inactive)
14 | C[N+]1(CCN[N+]2(C)CCCCC2)CCc2ccccc2C1 (configuration not stated) | > 100 µM (inactive) | > 100 µM (inactive) | > 100 µM (inactive) | > 100 µM (inactive) | 58.3 µM (inactive) | > 100 µM (inactive) | > 100 µM (inactive) | > 100 µM (inactive) | > 100 µM (inactive) | > 100 µM (inactive) | > 100 µM (inactive) | > 100 µM (inactive) | > 100 µM (inactive) | > 100 µM (inactive) | > 100 µM (inactive) | > 100 µM (inactive) | > 100 µM (inactive) | > 100 µM (inactive) | > 100 µM (inactive) | 60.4 µM (inactive)
